According to ChEMBL document CHEMBL5465560, “Selectivity Literature for EUbOPEN Chemogenomic Library” (2024):

Legend:
[1] = molecular target: Phosphatidylinositol 4-phosphate 3-kinase C2 domain-containing subunit beta (Homo sapiens) (UniProt O00750); assay: Selectivity interaction (Kinase panel (Invitrogen)) EUB0000639a PIK3C2B; settings: at 200 nM
[2] = molecular target: T1, Dual specificity mitogen-activated protein kinase kinase 7 (Homo sapiens) (UniProt O14733); assay: Selectivity interaction (KinomeScan (DiscoverX)) EUB0000618a MAP2K7; settings: at 10 µM
T1 sequence (whole entry): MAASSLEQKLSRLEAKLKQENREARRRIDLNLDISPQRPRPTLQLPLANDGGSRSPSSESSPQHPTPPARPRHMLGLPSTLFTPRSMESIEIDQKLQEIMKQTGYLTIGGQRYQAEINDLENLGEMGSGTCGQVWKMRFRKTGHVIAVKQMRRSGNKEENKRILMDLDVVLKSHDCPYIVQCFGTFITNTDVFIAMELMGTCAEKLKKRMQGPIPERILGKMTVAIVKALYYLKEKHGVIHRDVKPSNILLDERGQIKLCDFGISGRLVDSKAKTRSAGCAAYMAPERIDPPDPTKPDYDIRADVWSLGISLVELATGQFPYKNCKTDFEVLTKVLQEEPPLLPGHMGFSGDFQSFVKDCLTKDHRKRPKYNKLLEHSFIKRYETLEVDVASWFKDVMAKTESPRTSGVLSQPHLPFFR

[3] = molecular target: T2, Tyrosine-protein kinase JAK3 (Homo sapiens) (UniProt P52333); assay: Selectivity interaction (KinomeScan (DiscoverX)) EUB0000655a JAK3; settings: at 10 µM
T2 sequence (whole entry): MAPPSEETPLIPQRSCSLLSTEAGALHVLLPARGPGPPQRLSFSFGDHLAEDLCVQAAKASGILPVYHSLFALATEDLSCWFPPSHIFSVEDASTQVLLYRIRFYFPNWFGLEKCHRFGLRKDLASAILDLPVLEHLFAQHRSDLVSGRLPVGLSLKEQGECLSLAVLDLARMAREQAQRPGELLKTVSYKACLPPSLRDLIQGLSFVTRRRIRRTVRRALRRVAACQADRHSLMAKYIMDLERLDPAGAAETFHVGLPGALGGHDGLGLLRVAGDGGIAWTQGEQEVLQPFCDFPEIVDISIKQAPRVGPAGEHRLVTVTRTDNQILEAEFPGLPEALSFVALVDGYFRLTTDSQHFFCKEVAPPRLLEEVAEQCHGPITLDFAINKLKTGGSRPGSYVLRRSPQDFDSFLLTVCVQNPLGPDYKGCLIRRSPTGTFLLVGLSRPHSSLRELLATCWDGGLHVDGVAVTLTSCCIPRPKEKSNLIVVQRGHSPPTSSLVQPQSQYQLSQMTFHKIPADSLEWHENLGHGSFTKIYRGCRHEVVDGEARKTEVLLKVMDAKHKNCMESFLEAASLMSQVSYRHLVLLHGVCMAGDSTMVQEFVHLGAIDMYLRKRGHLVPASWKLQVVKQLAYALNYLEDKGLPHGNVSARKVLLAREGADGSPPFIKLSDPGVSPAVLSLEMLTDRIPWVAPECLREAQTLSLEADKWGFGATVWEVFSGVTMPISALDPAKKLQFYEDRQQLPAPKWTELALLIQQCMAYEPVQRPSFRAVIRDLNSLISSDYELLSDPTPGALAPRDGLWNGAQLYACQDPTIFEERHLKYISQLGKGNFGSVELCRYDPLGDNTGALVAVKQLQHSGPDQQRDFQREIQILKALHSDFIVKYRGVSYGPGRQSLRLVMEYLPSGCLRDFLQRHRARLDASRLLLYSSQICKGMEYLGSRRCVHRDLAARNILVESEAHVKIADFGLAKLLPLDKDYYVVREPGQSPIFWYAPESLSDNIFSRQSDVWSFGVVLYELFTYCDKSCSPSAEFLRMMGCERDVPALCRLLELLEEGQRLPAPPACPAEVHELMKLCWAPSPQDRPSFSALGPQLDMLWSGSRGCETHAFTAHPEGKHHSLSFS

[4] = tested on: Fibroblast growth factor receptor 3 (Homo sapiens), P22607 [K650E]; assay: (§1) Selectivity interaction (SelectScreen profiling (Invitrogen)) EUB0000607a FGFR3; settings: at 2 µM
Fibroblast growth factor receptor 3 (Homo sapiens), P22607 [K650E], sequence (P22607 whole entry K650E): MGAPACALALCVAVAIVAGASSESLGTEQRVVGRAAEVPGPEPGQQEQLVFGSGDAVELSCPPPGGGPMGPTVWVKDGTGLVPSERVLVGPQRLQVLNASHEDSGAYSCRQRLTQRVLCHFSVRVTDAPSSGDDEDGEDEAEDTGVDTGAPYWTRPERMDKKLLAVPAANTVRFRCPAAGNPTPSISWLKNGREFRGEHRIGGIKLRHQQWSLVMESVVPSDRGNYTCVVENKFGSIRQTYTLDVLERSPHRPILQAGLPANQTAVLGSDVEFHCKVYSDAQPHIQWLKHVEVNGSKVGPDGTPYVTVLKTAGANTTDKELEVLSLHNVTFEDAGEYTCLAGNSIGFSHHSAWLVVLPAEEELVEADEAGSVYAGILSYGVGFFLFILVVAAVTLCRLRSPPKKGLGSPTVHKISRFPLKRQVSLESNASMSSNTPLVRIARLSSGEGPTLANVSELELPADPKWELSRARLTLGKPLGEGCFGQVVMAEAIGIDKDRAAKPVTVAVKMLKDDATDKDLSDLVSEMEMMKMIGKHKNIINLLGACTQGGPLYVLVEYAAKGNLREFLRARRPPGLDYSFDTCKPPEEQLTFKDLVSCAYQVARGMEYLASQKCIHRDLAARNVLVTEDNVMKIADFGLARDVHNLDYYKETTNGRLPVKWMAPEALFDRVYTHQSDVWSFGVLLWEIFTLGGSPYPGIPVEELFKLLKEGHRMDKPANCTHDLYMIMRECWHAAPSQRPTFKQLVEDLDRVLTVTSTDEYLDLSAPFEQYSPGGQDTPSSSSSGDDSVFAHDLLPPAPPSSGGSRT

[5] = molecular target: Fibroblast growth factor receptor 3 (Homo sapiens, UniProt P22607); assay: as §1; settings: at 2 µM
Fibroblast growth factor receptor 3, sequence (P22607 23-806 limits assumed): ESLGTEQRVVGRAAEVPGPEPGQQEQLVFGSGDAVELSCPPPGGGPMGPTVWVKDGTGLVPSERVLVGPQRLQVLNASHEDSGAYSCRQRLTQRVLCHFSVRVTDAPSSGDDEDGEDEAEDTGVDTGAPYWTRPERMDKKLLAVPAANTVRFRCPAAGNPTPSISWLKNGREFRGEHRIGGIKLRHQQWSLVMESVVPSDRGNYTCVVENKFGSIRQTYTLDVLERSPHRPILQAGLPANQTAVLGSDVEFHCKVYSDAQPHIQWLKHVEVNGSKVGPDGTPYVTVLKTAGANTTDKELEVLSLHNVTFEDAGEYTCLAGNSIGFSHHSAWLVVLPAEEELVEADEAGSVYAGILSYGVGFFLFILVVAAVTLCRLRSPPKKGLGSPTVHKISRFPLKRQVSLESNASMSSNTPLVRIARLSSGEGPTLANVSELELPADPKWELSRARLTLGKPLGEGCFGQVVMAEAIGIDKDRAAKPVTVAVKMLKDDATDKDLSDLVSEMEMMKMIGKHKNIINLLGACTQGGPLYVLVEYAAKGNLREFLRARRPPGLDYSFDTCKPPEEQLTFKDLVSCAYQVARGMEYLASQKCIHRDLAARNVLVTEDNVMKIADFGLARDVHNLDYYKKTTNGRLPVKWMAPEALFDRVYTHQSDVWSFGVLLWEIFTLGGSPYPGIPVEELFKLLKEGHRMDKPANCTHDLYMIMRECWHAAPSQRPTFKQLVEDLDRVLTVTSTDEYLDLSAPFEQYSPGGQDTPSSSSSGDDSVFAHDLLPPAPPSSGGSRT

[6] = molecular target: T3, Cytoplasmic tyrosine-protein kinase BMX (Homo sapiens) (UniProt P51813); assay: Selectivity interaction (ProQinase) EUB0000171b BMX
T3 sequence (whole entry): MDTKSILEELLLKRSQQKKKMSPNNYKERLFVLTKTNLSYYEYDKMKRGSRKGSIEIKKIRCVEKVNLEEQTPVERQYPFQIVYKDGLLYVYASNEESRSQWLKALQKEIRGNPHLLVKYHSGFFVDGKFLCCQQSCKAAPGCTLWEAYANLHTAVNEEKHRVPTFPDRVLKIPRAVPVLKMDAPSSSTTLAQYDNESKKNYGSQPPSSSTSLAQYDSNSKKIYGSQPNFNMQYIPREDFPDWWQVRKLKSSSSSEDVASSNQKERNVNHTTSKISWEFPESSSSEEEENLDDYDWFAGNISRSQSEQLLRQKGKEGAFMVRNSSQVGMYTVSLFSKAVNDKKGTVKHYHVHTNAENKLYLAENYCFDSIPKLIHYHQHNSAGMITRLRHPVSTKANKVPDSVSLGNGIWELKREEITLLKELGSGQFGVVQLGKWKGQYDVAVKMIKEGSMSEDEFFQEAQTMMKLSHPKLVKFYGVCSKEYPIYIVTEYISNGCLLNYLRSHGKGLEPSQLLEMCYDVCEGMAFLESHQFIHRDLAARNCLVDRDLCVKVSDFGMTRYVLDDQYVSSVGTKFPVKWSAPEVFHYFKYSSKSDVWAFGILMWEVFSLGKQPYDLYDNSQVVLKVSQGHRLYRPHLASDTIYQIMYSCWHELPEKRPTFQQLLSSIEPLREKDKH

Phosphatidylinositol 4-phosphate 3-kinase C2 domain-containing subunit beta (Homo sapiens), sequence (O00750 whole entry, the tested form may be a part): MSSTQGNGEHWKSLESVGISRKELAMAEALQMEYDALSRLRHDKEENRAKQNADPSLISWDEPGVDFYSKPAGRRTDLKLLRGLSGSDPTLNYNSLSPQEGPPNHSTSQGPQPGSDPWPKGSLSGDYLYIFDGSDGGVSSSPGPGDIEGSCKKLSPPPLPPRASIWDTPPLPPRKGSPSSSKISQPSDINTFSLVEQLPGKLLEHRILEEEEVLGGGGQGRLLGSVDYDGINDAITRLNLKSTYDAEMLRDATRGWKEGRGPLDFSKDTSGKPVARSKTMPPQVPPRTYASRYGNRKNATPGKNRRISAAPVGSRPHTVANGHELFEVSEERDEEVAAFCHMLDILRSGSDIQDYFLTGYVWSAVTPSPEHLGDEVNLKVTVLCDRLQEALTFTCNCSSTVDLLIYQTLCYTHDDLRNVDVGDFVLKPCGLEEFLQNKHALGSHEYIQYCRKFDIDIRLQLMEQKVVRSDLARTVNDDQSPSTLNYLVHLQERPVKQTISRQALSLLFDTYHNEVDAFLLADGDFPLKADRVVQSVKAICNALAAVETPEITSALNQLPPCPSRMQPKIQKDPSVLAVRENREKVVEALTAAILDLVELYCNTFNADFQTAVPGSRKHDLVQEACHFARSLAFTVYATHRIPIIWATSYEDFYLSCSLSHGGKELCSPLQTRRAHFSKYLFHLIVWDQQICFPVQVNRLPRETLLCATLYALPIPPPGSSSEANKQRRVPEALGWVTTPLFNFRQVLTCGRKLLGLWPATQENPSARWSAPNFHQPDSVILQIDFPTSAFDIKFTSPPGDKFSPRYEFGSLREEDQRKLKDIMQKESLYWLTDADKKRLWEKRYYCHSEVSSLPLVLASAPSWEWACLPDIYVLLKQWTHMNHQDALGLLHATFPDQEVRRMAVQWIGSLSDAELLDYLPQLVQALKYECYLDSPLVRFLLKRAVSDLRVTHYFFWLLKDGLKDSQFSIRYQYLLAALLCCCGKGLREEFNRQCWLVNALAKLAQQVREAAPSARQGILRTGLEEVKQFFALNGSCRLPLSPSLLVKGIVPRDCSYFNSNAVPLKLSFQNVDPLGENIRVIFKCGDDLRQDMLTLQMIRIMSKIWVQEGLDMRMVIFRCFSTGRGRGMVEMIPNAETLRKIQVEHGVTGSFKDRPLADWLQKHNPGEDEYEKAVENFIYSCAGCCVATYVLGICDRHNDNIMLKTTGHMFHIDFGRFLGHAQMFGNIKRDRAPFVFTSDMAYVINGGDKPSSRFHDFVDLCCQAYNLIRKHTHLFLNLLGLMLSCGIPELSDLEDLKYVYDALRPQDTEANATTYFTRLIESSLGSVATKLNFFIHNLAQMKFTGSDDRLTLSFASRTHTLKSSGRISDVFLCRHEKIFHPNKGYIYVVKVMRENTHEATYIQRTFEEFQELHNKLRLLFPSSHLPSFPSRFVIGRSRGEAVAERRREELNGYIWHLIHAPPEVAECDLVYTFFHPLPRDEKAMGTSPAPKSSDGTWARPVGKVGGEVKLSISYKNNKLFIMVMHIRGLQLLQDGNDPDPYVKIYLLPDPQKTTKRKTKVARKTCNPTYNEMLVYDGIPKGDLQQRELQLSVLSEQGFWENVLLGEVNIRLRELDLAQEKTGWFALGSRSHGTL

**Q.** `CC[C@@H]1[C@H](F)C(=O)N[C@@H]1COc1nccc2cc(C(N)=O)c(OC)cc12` [ZIMLOVISERTIB] was tested. Which % of inhibition [1] did it give?
**A.** Its % of inhibition is 7.24%.

**Q.** `O[C@H]1CC[C@H](Nc2ncc3nc(Nc4c(F)cc(F)cc4F)n([C@H]4CCOC4)c3n2)CC1` was tested. Which % of control [2] did it give?
**A.** The % of control was 94%.

**Q.** For `CN(C)CCOc1ccc(-c2nc(-c3ccncc3)c(-c3ccc4c(c3)CC/C4=N\O)[nH]2)cc1`, which % of control [3] is on record?
**A.** Its % of control is 93%.

**Q.** With `CNC(=O)Nc1ccc(-c2nc(N3CC4CCC(C3)O4)c3cnn(C4CCC5(CC4)OCCO5)c3n2)cc1` as the molecule, how does the % of inhibition [4] read?
**A.** The % of inhibition was 6%.

**Q.** And the % of inhibition [5]?
**A.** Its % of inhibition is 5%.

**Q.** With `C=CC(=O)Nc1cccc(C(=O)Nc2ccc(Nc3cc(-c4[nH]c(SC)nc4C)ccn3)cc2)c1` as the molecule, how does the % of control ([6]; at 1 µM) read?
**A.** Its % of control is 106%.

**Q.** And the % of control ([6]; at 5 µM)?
**A.** The % of control was 85%.
